The source of these data is US20260248799A1, “COMBINATIONS OF RETINALDEHYDE DEHYDROGENASE 1 (RALDH1) INHIBITORS AND IMMUNOSTIMULATORS AND METHODS USING SAME” (The Trustees of the University of Pennsylvania, priority 2023, published 2026).

The target in data set [1] is T1, Peptidase, Angiotensin Converting Enzyme (Oryctolagus cuniculus, UniProt P12822).
T1 construct: Eurofins Cerep Panlabs (contract panel)
As to the kind of experiment: Safetyscreen: ACE. Format: biochemical, rabbit. As to conditions: read-out: % Inh. Peptidase, Angiotensin Converting Enzyme.

The target in a further data set is T2, Transporter, GABA (Rattus norvegicus, UniProt P23978).
T2 construct: purchased Eurofins Cereps Panlabs
Kind of data set: Safetyscreen: GABA transporter. The class given is binding. As to conditions: read-out: % Inh. Transporter, GABA.

The next data set concerns the target T3, Muscarinic M3 (Homo sapiens, UniProt P20309).
T3 construct: Eurofins Cereps Panlabs (contract panel)
Kind of data set: Safetyscreen: Muscarinic M3. Format: binding. As to conditions: read-out: % Inh. Muscarinic M3.

The next data set has as its system Phosphodiesterase PDE3. Kind of data set: Safetyscreen: PDE3. Format: biochemical, human. As to conditions: 10 μM.
A short description of data set [2]: Chow PK of C86, 15-day study in CD-1 mice. The class given is in vivo, mouse. As to conditions: 15-day period. As for the experimental part: FIG. 31A: Completed blood count (CBC) was performed at IDEXX on whole blood collected from indicated RALDH1 genotypes (X-axis). One experiment with four replicates per experimental group. One-way ANOVA. *p<0.05, **p<0.01, ***p<0.001. FIG. 31B: Weights of mice of the indicated RALDH1 genotypes. Siblings were used for all genotypes to control for confounding factors. One experiment with four replicates per experimental group. One-way ANOVA. *p<0.05, **p<0.01, ***p<0.001. […] Diet (or PO) #A, B, and C (shown in the inbox of individual graphs) corresponds to drug dose of 10, 30, and 60 mg/kg respectively. Mice had free access to food and water during the 15-day study.
The PK studies were done at NIH or a commercial CRO—Pharmacon using their in-house standard protocol. […] For C99, IV and PO, performed at NIH using CD-1 mice; formulation: 20% HPbCD in saline.

The next data set concerns the target T4, Melanocortin MC4 (Homo sapiens, UniProt P32245).
T4 construct: Eurofins Cereps Panlabs (contract panel)
As to the kind of experiment: Safetyscreen: MC4. The class given is binding. As to conditions: read-out: % Inh. Melanocortin MC4.

Data set [3] deals with T5, Transporter, Dopamine (DAT) (Homo sapiens, UniProt Q01959).
T5 construct: purchased Eurofins Cereps Panlabs
Kind of data set: Safetyscreen: DAT. Format: binding. As to conditions: read-out: % Inh. Transporter, Dopamine (DAT).

The target of another data set is T6, Adrenergic α1D (Homo sapiens, UniProt P25100).
T6 construct: Eurofins Cerep Panlabs (contract panel)
T6 sequence (P25100 whole entry): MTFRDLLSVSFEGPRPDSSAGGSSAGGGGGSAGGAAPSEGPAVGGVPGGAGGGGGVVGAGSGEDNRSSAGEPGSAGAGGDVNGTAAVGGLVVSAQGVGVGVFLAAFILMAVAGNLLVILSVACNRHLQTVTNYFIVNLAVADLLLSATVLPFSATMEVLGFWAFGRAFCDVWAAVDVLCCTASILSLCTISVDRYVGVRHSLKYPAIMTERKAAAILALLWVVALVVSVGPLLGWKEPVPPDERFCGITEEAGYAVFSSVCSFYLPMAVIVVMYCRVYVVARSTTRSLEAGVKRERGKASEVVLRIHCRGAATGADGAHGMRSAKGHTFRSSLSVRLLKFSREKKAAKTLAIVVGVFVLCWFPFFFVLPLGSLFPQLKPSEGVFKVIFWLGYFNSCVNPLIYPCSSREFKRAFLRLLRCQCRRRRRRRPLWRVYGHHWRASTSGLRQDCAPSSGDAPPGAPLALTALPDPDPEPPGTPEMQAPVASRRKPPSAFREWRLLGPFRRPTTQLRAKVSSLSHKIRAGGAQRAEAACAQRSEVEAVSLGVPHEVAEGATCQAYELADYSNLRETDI
As to the kind of experiment: Safetyscreen: Adrenergic α1D. As to conditions: read-out: % Inh. Adrenergic α1D. The class given is binding.

The target in another data set is T7, Melanocortin MC1 (Homo sapiens, UniProt Q01726).
T7 construct: purchased Eurofins Cereps Panlabs
T7 sequence (Q01726 whole entry): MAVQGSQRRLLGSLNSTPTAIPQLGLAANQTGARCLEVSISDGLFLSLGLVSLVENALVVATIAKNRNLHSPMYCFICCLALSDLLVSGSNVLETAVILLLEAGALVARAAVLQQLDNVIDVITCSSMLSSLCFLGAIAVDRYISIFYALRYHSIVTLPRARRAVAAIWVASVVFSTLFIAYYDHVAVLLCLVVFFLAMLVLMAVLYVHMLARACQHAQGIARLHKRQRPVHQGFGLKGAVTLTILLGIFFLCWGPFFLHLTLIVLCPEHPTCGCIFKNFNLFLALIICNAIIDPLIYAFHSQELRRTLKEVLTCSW
Kind of data set: Safetyscreen: MC1. Format: binding. As to conditions: read-out: % Inh. Melanocortin MC1.

In data set [4] the target is T8, Serotonin (5-Hydroxytryptamine) 5-HT2B (Homo sapiens, UniProt P41595).
T8 construct: Eurofins Cereps Panlabs (contract panel)
T8 sequence (P41595 whole entry): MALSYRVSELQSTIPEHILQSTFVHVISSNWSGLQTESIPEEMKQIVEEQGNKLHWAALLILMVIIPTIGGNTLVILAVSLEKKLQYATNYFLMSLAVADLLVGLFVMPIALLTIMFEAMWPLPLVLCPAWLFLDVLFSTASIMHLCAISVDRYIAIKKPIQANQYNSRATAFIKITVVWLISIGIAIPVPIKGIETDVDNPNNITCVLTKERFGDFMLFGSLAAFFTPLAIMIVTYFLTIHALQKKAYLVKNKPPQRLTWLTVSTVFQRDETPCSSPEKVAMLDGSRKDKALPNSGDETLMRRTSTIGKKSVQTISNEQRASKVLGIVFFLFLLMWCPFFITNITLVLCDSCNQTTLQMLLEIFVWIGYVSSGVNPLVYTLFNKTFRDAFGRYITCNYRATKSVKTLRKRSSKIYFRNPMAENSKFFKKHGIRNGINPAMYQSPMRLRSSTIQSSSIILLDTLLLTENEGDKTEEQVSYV
As to the kind of experiment: Safetyscreen: 5-HT2B. The class given is binding. As to conditions: read-out: % Inh. Serotonin (5-Hydroxytryptamine) 5-HT2B.

A further data set addresses T9, Chemokine CXCR2 (IL-8RB) (Homo sapiens, UniProt P25025).
T9 construct: purchased Eurofins Cereps Panlabs
Kind of data set: Safetyscreen: CXCR2. As to conditions: read-out: % Inh. Chemokine CXCR2 (IL-8RB). The class given is binding.

The next data set has as its system Huh7 tumors. As to the kind of experiment: Huh7 tumors in NU/J mice. Format: in vivo, mouse. As for the experimental part:
FIGS. 26A-26H: Raldh1-INH suppresses HCC growth by altering macrophage functions. FIG. 26A: Huh7 tumor-bearing NU/J mice were treated with C86 (i.p, 10 mg/kg) every day starting when tumor size was approximately 50 mm^3. Tumor volume was measured every 2 days. […] Three or more independent experiments were performed with at least three replicates per experimental group. Unpaired t test, two-tailed. FIG. 26B: AldeRed assay at endpoint on Huh7 tumor treated as described in FIG. 26A. […] Three or more independent experiments were performed with at least three replicates per experimental group. Unpaired t test, two-tailed. FIG. 26C: Huh7 tumor-bearing nude mice were treated with different dose of C86 every day. Tumor volume was measured every 2-3 days. […] Two independent experiments were performed with at least three replicates per experimental group. Unpaired t test, two-tailed. FIG. 26D: Body weight measured every 3-5 days for the experiment outlined in FIG. 26C. FIG. 26E: Parental Huh7 or RALDH1-KO Huh7 cells were implanted subcutaneously into NU/J mice and treated with C86 (i.p, 10 mg/kg) or vehicle (control) every day. […] Three or more independent experiments were performed with at least three replicates per experimental group. Unpaired t test, two-tailed. FIG. 26F: Huh7 tumor-bearing NU/J mice were treated with clodronate liposomes (CloLipo) and/or C86. […] Two independent experiments were performed with at least three replicates per experimental group. Unpaired t test, two-tailed. FIG. 26G: Murine Hepa 1-6 tumors were implanted subcutaneously into C57BL6/J WT mice or LyMCre:RosadnRAR mice. Expression of the dominant negative RAR in myeloid cells slows tumor growth. Two independent experiments were performed with at least three replicates per experimental group. Unpaired t test, two-tailed. FIG. 26H: Huh7 cells were implanted subcutaneously into NU/J mice. When tumor size reached about 50 mm^3, mice were intraperitoneally injected vehicle (control) or C86 daily with or without BMS493 treatment intratumorally every 3 days. BMS493 and C86 suppress tumor growth with the combination showing higher suppression than monotherapy. *, P<0.05; **, P<0.01; ***, P<0.001; n.s., not significant.
Cultured Huh7, Huh1, Hepa 1-6, Hep55, and FS (as indicated in figure legends) tumor cells were detached using 0.25% trypsin (Gibco, catalog #25200056), washed once with 1×PBS, and counted before implantation. 3~6×10^6 tumor cells were implanted subcutaneously (s.c.) into shaved flanks of recipient mice. Tumor dimensions were measured using a caliper starting at the day indicated in the accompanying figure legend and every two to three days thereafter; volume was calculated by using formula Length*Width^2/2. Tumor volumes of 2,000 mm^3, tumor length of 2 cm or tumor ulceration were used as endpoints for survival analyses.
Compound-86, 97 and 99 powder was dissolved in 20% HPβCD saline (2-Hydroxypropyl)-[…]). Drug was administered i.p. or p.o. starting when tumor volume reached 50-150 mm^3 and repeated every day.

For data set [5], the system named is Glutamate, NMDA, Polyamine. As to the kind of experiment: Safetyscreen: NMDA, Polyamine. As to conditions: 10 μM. The class given is binding, rat.
Where [6] appears, read: Huh7 tumor-bearing nude mice, once daily dosing.

Molecules are shown by their SMILES.

T1 sequence (P12822 34-1310): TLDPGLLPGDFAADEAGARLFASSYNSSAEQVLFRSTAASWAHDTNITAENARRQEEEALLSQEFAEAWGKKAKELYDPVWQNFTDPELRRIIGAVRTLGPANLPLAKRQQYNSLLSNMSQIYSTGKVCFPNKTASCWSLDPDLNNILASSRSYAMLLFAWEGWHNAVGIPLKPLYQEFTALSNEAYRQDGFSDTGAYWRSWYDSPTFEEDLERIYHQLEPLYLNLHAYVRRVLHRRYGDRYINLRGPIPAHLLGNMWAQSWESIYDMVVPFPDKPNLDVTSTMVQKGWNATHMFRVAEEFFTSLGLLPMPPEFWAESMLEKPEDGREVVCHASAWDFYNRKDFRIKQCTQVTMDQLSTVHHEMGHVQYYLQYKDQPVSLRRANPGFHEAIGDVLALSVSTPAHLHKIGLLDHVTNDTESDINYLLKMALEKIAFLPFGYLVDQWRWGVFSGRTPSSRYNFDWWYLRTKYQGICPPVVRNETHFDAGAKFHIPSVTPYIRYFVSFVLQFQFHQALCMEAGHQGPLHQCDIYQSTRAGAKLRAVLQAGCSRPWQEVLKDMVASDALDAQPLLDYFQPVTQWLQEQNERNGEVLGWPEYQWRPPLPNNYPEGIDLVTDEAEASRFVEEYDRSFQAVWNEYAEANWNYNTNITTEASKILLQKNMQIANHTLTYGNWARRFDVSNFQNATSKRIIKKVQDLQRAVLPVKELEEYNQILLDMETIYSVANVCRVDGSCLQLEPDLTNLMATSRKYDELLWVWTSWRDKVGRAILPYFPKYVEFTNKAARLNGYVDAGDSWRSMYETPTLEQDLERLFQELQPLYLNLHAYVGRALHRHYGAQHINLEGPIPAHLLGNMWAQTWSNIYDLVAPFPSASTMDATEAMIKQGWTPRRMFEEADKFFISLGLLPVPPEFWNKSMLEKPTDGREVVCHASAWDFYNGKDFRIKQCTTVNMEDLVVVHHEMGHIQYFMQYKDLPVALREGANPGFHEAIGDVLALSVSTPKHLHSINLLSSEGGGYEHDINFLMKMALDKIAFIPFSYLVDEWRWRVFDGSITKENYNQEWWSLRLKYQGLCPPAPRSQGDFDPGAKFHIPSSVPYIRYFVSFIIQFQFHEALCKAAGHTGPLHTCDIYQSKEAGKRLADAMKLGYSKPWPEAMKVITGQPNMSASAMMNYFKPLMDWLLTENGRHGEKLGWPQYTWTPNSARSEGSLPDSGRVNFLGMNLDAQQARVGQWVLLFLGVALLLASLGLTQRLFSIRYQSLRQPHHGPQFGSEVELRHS
T9 sequence (P25025 whole entry): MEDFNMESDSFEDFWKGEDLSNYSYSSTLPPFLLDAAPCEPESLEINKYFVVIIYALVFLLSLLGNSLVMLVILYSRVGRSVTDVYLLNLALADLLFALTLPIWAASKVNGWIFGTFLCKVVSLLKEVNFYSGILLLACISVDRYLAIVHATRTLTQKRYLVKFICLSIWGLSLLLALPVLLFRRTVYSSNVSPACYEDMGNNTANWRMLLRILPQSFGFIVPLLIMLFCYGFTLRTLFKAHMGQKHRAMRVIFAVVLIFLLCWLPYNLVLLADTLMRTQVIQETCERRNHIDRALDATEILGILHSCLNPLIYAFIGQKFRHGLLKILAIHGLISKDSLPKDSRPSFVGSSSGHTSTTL
T4 sequence (P32245 whole entry): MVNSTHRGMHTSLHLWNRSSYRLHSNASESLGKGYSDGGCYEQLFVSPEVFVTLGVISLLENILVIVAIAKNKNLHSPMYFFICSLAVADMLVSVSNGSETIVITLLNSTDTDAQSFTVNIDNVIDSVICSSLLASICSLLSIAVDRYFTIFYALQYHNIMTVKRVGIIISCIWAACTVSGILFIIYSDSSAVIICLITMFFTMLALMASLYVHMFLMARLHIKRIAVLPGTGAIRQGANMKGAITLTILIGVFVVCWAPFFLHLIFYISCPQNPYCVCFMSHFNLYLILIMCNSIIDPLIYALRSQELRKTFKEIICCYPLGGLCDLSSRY
T3 sequence (P20309 whole entry): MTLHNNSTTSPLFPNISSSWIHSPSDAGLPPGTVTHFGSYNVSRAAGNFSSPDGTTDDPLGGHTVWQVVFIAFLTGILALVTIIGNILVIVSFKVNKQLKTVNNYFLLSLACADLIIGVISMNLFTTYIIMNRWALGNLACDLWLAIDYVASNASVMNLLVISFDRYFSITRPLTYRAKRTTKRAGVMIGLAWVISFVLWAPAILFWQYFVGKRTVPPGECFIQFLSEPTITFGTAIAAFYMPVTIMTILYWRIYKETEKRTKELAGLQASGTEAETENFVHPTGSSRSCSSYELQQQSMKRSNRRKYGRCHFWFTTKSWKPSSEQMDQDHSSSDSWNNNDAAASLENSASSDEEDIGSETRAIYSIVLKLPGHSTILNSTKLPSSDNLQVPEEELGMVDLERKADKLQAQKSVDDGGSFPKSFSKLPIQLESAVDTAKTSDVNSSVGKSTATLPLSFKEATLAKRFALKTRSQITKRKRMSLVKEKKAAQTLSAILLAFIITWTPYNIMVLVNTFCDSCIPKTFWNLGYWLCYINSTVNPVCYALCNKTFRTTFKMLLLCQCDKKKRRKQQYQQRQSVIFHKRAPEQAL

Take `CS(=O)(=O)N1CCN(C(=O)c2cnc3ccc(F)cc3c2N2CCC(C#N)(c3ccccc3)CC2)CC1` [Compound C-86, 1-(6-fluoro-3-(4-(methylsulfonyl)piperazine-1-carbonyl)quinolin-4-yl)-4-phenylpiperidine-4-carbonitrile]: the inhibition at 10 µM is -6% in data set [1]; 4% at Transporter, GABA; 5% on Muscarinic M3; 13% at Melanocortin MC4; 8% in data set [3]; 6% on Adrenergic α1D. Moreover, the inhibition at 10 µM on Melanocortin MC1 is 8%; in data set [4] it was -5%; at Chemokine CXCR2 (IL-8RB), 8%. In addition, the “% Inh. Phosphodiesterase PDE3” value with Phosphodiesterase PDE3 is −23%. Further, in data set [2] (chow, 10, 30 and 60 mg/kg), the “drug exposure over time” value is “consistent drug exposure over time”. Also, the body weight entry in data set [2] (chow) was “without affecting body weight”. In addition, the “tumor mass and volume” value in the data set with Huh7 tumors (Huh7, C-86 versus C-97 (FIGS. 17A-17B)) is “significant reduction in tumor mass and volume”; in the data set on Huh7 tumors (Huh7, intraperitoneal administration, compared to a control (FIGS. 12B-12C)), “significant reduction in tumor mass and volume”. In the data set on Huh7 tumors (Huh7, FIGS. 13A-13B), the “dose dependence of effect on tumor volume and tumor mass” value is recorded as “dose-dependent effect”. Also, the “tumor suppression in the absence of TAMs” value in the data set on Huh7 tumors (Huh7, TAM depletion with CloLipo) is “did not further suppress tumors”. Also, in the data set with Huh7 tumors (Huh7, macrophage depletion study (FIG. 14B)), the tumor mass result is given as “significant reduction in tumor mass”. Moreover, in the data set on Huh7 tumors (setting [6]), the “dose at which weight loss was observed” value was 40 mg/kg. In addition, the “dose with tumor suppressive effects” value in the data set on Huh7 tumors (setting [6]) is recorded as > 10 mg/kg. The “RALDH activity in tumor cells (AldeRed at endpoint)” value in the data set on Huh7 tumors (Huh7 tumors, CD45− cells) was “reduced RADLH activity”. The “response of RALDH1-KO HCC tumors to therapy” value in the data set with Huh7 tumors (RALDH1-KO Huh7, i.p, 10 mg/kg every day) was “did not respond”. Besides, the tumor inhibition entry with Huh7 tumors (huh7 in immunodeficient mice, i.p, 10 mg/kg every day) is on record as “significant tumor inhibition”. Besides, the “% Inh. Glutamate, NMDA, Polyamine” value in [5] came out at 1%.
